Data: patent publication US10383831B2, “2,4,6-trialkoxystryl aryl sulfones, sulfonamides and carboxamides, and methods of preparation and use” (Temple University—Of The Commonwealth System Of Higher …, priority 2015, dated 2019)

Experiments:
Format in all cases: cell-based
[1] = system: K562 (chronic myelogenous leukaemia); experiment: Cytotoxicity assay, K562 tumor cells; conditions: Homo sapiens, 96 hours treatment
Description: (§1) The effect of the compounds of the invention on tumor cells was determined by the assay described by Latham et al., Oncogene 12:827-837 (1996). Tumor cells K562 (chronic myelogenous leukaemia) or DU145 (prostate cancer) were plated in 12-well dishes at a cell density of 2.5×10^4 cells well. The plated cells were treated 24 hours later with a compound of the invention dissolved in DMSO at multiple concentrations ranging from 0.001 to 10 μM. The plates were examined 96 hours later under an inverted microscope, Olympus CK-2 using a 10× objective, and compound activity was noted by physical observation. When necessary, the total number of viable cells was determined by trypsinizing the wells and counting the number of viable cells, as determined by trypan blue exclusion, using a hemacytometer.

DU145 (prostate cancer) = experiment: Cytotoxicity assay, DU145 tumor cells; conditions: Homo sapiens, DU-145, 96 hours treatment
Description: as §1

DU145 = experiment: Cytotoxicity assay (viable cell count, trypan blue), DU145; conditions: Homo sapiens, DU-145; DU145, Prostate; 96 hours continuous treatment
Description: (§2) Cells of the cell lines listed in Table 18 (1×10^5) were plated into 6-well dishes. Twenty-four hours later, the compound of Example 1, i.e., (Z)-ethyl 3-((2-methoxy-5-(((E)-2,4,6-trimethoxystyrylsulfonyl)methyl) phenyl)amino)acrylate, or the compound of Comparative Example 1, i.e., sodium (E)-2-(5-((2,4,6-trimethoxystyrylsulfonyl)methyl)-2-methoxyphenylamino) acetate (rigosertib) was added at different concentrations over a 4 log dilution (0.001 to 10 μM). The total number of viable cells was determined after 96 hours of continuous treatment by staining with trypan blue and counting the number of non-staining cells (viable) remaining in each well using a hemacytometer. The percentage of viable cells remaining was calculated as follows: # viable cells (compound treated)/# viable cells (DMSO treated)*100. The GI50 (the concentration of drug resulting in 50% net loss of growth inhibition) was determined.

PC-3 = experiment: Cytotoxicity assay (viable cell count, trypan blue), PC-3; conditions: Homo sapiens; PC-3, Prostate; 96 hours continuous treatment
Description: as §2

N417 = experiment: Cytotoxicity assay (viable cell count, trypan blue), N417; conditions: N417, Small Cell Lung Carcinoma; 96 hours continuous treatment
Description: as §2

HT-29 = experiment: Cytotoxicity assay (viable cell count, trypan blue), HT-29; conditions: Homo sapiens; HT-29, Colo-Rectal; 96 hours continuous treatment
Description: as §2

HCT-116 = experiment: Cytotoxicity assay (viable cell count, trypan blue), HCT-116; conditions: Homo sapiens; HCT-116, Colo-Rectal; 96 hours continuous treatment
Description: as §2

HCT-15 = experiment: Cytotoxicity assay (viable cell count, trypan blue), HCT-15; conditions: Homo sapiens; HCT-15, Colo-Rectal; 96 hours continuous treatment
Description: as §2

H1299 = experiment: Cytotoxicity assay (viable cell count, trypan blue), H1299; conditions: Homo sapiens, NCI-H1299; H1299, Non-Small Cell Lung Carcinoma; 96 hours continuous treatment
Description: as §2

A549 = experiment: Cytotoxicity assay (viable cell count, trypan blue), A549; conditions: Homo sapiens; A549, Non-Small Cell Lung Carcinoma; 96 hours continuous treatment
Description: as §2

T-24 = experiment: Cytotoxicity assay (viable cell count, trypan blue), T-24; conditions: Homo sapiens; T-24, Bladder; 96 hours continuous treatment
Description: as §2

UM-UC-3 = experiment: Cytotoxicity assay (viable cell count, trypan blue), UM-UC-3; conditions: Homo sapiens, UMUC3; UM-UC-3, Bladder; 96 hours continuous treatment
Description: as §2

5367 = experiment: Cytotoxicity assay (viable cell count, trypan blue), 5367; conditions: 5367, Bladder; 96 hours continuous treatment
Description: as §2

2008 = experiment: Cytotoxicity assay (viable cell count, trypan blue), 2008; conditions: 2008, Ovarian; 96 hours continuous treatment
Description: as §2

Caov-3 = experiment: Cytotoxicity assay (viable cell count, trypan blue), Caov-3; conditions: Homo sapiens; Caov-3, Ovarian; 96 hours continuous treatment
Description: as §2

MDA-MB-231 = experiment: Cytotoxicity assay (viable cell count, trypan blue), MDA-MB-231; conditions: Homo sapiens; MDA-MB-231, Breast; 96 hours continuous treatment
Description: as §2

MIA-PaCa-2 = experiment: Cytotoxicity assay (viable cell count, trypan blue), MIA-PaCa-2; conditions: Homo sapiens; MIA-PaCa-2, Pancreatic; 96 hours continuous treatment
Description: as §2

WM1617 = experiment: Cytotoxicity assay (viable cell count, trypan blue), WM1617; conditions: WM1617, Melanoma; 96 hours continuous treatment
Description: as §2

K562 = experiment: Cytotoxicity assay (viable cell count, trypan blue), K562; conditions: Homo sapiens; K562, Chronic Myelogenous Leukemia; 96 hours continuous treatment
Description: as §2

RS4; 11 = experiment: Cytotoxicity assay (viable cell count, trypan blue), RS4; 11; conditions: Homo sapiens, 11, ALL-B-Cell Precursor, 96 hours continuous treatment
Description: as §2

DAUDI = experiment: Cytotoxicity assay (viable cell count, trypan blue), DAUDI; conditions: Homo sapiens, B-Cell Lymphoma, 96 hours continuous treatment
Description: as §2

CEM = experiment: Cytotoxicity assay (viable cell count, trypan blue), CEM; conditions: Homo sapiens, CCRF-CEM, T-Cell Lymphoma, 96 hours continuous treatment
Description: as §2

MOLT-4 = experiment: Cytotoxicity assay (viable cell count, trypan blue), MOLT-4; conditions: Homo sapiens; MOLT-4, T-Cell Lymphoma; 96 hours continuous treatment
Description: as §2

Z1385 = experiment: Cytotoxicity assay (viable cell count, trypan blue), Z1385; conditions: Z1385, Mantle Cell Lymphoma; 96 hours continuous treatment
Description: as §2

GRANTA-519 = experiment: Cytotoxicity assay (viable cell count, trypan blue), GRANTA-519; conditions: Homo sapiens; GRANTA-519, Mantle Cell Lymphoma; 96 hours continuous treatment
Description: as §2

tumor cell lines = experiment: Cytotoxicity assay, comparison across the cell lines listed in Table 18; conditions: across the cell lines of Table 18; against some tumor types as much as 10-fold or even 100-fold
Description: as §2

## CCOC(=O)/C=C\Nc1cc(CS(=O)(=O)/C=C/c2c(OC)cc(OC)cc2OC)ccc1OC [Ex. 1, (Z)-ethyl 3-((2-methoxy-5-(((E)-2,4,6-trimethoxystyrylsulfonyl)methyl)phenyl)amino) acrylate]
[1]
  IC50: 0.002 µM
DU145 (prostate cancer)
  IC50: 0.006 µM
DU145
  GI50: 10 nM
PC-3
  GI50: 7.5 nM
N417
  GI50: 8 nM
HT-29
  GI50: 15 nM
HCT-116
  GI50: 7.5 nM
HCT-15
  GI50: 7.5 nM
H1299
  GI50: 4 nM
A549
  GI50: 7.5 nM
T-24
  GI50: 4 nM
UM-UC-3
  GI50: 3 nM
5367
  GI50: 3 nM
2008
  GI50: 6 nM
Caov-3
  GI50: 4 nM
MDA-MB-231
  GI50: 7.5 nM
MIA-PaCa-2
  GI50: 5 nM
WM1617
  GI50: 3 nM
K562
  GI50: 3 nM
RS4; 11
  GI50: 7.5 nM
DAUDI
  GI50: 7.5 nM
CEM
  GI50: 7.5 nM
MOLT-4
  GI50: 7.5 nM
Z1385
  GI50: 6 nM
GRANTA-519
  GI50: 6 nM
Tumor cell lines
  fold more active than the Comparative Example 1 compound: at least 4 fold
